# Results reported in patent US4198349A, “Benzylideneaniline derivatives” (William H. Rorer, Inc., priority 1978, dated 1980).
# Test system: croton oil-induced inflammation in the mouse's ear
# Test: Topical anti-inflammatory activity after immediate application in croton oil-induced inflammation in the mouse's ear
# Format: in vivo, mouse (female CF1)
# Details: 4 h, Topical Dose 4 mg/ear, immediate application with 2% croton oil, ears taken four hours after application, read-out: % Inhibition of Ear Edema
# Protocol: Testing of the anti-inflammatory effects of the compounds of Formula I were performed utilizing a modification of the experimental techniques described by Tonelli, G., Thibault, L. and Ringler, L., "A Bioassay for the Concomitant Assessment of the Anti-phlogistic and Thymolytic Activities of Topically Applied Corticoids": Endocrinology 77, 625 (1965) and Roszkowski, A. P., Rooks, W. H. II, Tomolonis, A. J., and Miller, L. M., "Anti-inflammatory and Analgetic Properties of the d-2-(6-Methoxy-2'-Naphthyl)Propionic Acid (Naproxen)". J. Pharm. Exp. Ther., 179, 114 (1971).
# The topical anti-inflammatory activity of the test compounds is measured by immediate application at the time of induction of croton oil-induced inflammation in the mouse's ear.
# 0.1 ml. of a solution containing 2% croton oil (Amend Drug and Chemical Co., Irvington, N.J.), 73% diethyl ether, U.S.P. (Corco Chemical Corp., Fairless Hills, Pa.), 20% pyridine (J. T. Baker Chemical Co., Phillipsburg, Pa.) and 5% distilled water was applied to the left ear of female CF1 mice, in groups of six, during light ether anesthesia.
# Four hours after application of either the irritant solution or the irritant solution containing the test compound, the mice were sacrificed by cervical dislocation, both ears were amputated and circular sections, one from each ear, were removed with a No. 4 cork borer (7 mm, i.d.). Each ear section was then weighed. The increase in weight due to edema formation caused by the croton oil in the treated ear and the reduction of that edema caused by drug treatment was determined by subtracting the weight of the untreated right ear section from that of the treated left ear section.
# The anti-inflammatory effects of the test compounds expressed as percent inhibition are calculated by: [formula]
# TOPICAL ANTI-INFLAMMATORY ACTIVITY AFTER
# IMMEDIATE APPLICATION IN CROTON OIL-INDUCED
# INFLAMMATION IN THE MOUSE'S EAR
row,SMILES,inhibition in vivo at 4 mg/ear
1,"Clc1ccc(N=Cc2c(Cl)cccc2Cl)cc1 [N-(2,6-dichlorobenzylidene)-p-chloroaniline]",9.1%
2,Clc1cc(C=Nc2ccc(Br)cc2)ccc1C1CCCCC1 [N-(3-chloro-4-cyclohexylbenzylidene)-p-bromoaniline],1.5%
3,Fc1ccc(N=Cc2ccc(C3CCCCC3)c(Cl)c2)cc1 [N-(3-chloro-4-cyclohexylbenzylidene)-p-fluoroaniline],6.8%
4,Fc1ccc(N=Cc2cccc(Cl)c2)cc1 [N-(m-chlorobenzylidene)-p-fluoroaniline],9.1%
5,Cc1c(Cl)cccc1N=Cc1ccccc1Cl [N-(o-chlorobenzylidene)-3-chloro-2-methylaniline],44.3%
6,Clc1cccc(N=Cc2ccccc2Cl)c1 [N-(o-chlorobenzylidene)-m-chloroaniline],4%
7,Fc1ccc(N=Cc2ccccc2Cl)cc1 [N-(o-chlorobenzylidene)-p-fluoroaniline],24.3%
8,"Cc1cccc(N=Cc2ccccc2O)c1C [N-(o-hydroxybenzylidene)-2,3-dimethylaniline]",27.8%
9,Cc1c(Cl)cccc1N=Cc1ccccc1O [N-(o-hydroxybenzylidene)-2-methyl-3-chloroaniline],38.5%
10,"Oc1ccccc1C=Nc1ccccc1 [N-(o-hydroxybenzylidene)-aniline, N-(o-hydroxybenzylidene)aniline]",5.3%
11,"Oc1ccccc1C=Nc1cccc(C(F)(F)F)c1 [N-(o-hydroxybenzylidene)-m-(α,α,α-trifluorotoluidine)]",21.6%
12,Oc1ccccc1C=Nc1ccc(F)cc1 [N-(o-hydroxybenzylidene)-p-fluoroaniline],21.5%
13,Fc1ccc(N=Cc2ccc(Br)cc2)c(C(F)(F)F)c1 [N-(p-bromobenzylidene)-4-fluoro-2-trifluoromethylaniline],18.8%
14,Cc1c(Cl)cccc1N=Cc1ccc(Cl)cc1 [N-(p-chlorobenzylidene)-2-methyl-3-chloroaniline],46.8%
15,Cc1cc(Cl)ccc1N=Cc1ccc(Cl)cc1 [N-(p-chlorobenzylidene)-2-methyl-4-chloroaniline],23%
16,Fc1ccc(N=Cc2ccc(Cl)cc2)c(C(F)(F)F)c1 [N-(p-chlorobenzylidene)-4-fluoro-2-trifluoromethylaniline],36.5%

row,SMILES,inhibition in vivo at 4 mg/ear
1,Clc1ccc(C=Nc2cccc(Cl)c2)cc1 [N-(p-chlorobenzylidene)-m-chloroaniline],23.6%
2,Fc1cccc(N=Cc2ccc(Cl)cc2)c1 [N-(p-chlorobenzylidene)-m-fluoroaniline],10.8%
3,Fc1ccc(N=Cc2ccc(Cl)cc2)cc1 [N-(p-chlorobenzylidene)-p-fluoroaniline],45.2%
4,Cc1ccc(N=Cc2ccc(Cl)cc2)cc1 [N-(p-chlorobenzylidene)-p-methylaniline],16.2%
5,Fc1ccc(C=Nc2ccccc2C(F)(F)F)cc1 [N-(p-fluorobenzylidene)-o-trifluoromethylaniline],21.3%
6,Clc1cc(Br)ccc1N=Cc1ccc(-c2ccccc2)cc1 [N-(p-phenylbenzylidene)-2-chloro-4-bromoaniline],33.9%
7,"C(=Nc1ccccc1)c1ccc(-c2ccccc2)cc1 [N-(p-phenylbenzylidene)-aniline, N-(p-phenylbenzylidene)aniline]",24.7%
8,Brc1ccc(N=Cc2ccc(-c3ccccc3)cc2)cc1 [N-(p-phenylbenzylidene)-p-bromoaniline],25.5%
9,Cc1ccc(N=Cc2ccc(-c3ccccc3)cc2)cc1 [N-(p-phenylbenzylidene)-p-methylaniline],27%
10,Cc1cc(F)ccc1N=Cc1ccccc1 [N-benzylidene-2-methyl-4-fluoroaniline],26.8%
11,Cc1ccccc1N=Cc1ccccc1 [N-benzylidene-o-toluidine],5.5%
12,Clc1ccc(N=Cc2ccccc2)cc1 [N-benzylidene-p-chloroaniline],29.3%
13,CCc1ccc(N=Cc2ccccc2)cc1 [N-benzylidene-p-ethylaniline],30.5%
14,Cc1ccc(N=Cc2ccccc2)cc1 [N-benzylidene-p-toluidine],45%
15,"C(=Nc1ccccc1)c1ccccc1 [N-benzylideneaniline, N-Benzylideneaniline]",4.9%
